Measurements from ChEMBL document CHEMBL1201862, “PubChem BioAssay data set” (2004).
Activity calls are given as the source filed them.

Assays:
[1] = target: Keap1/Nrf2 (Homo sapiens, UniProt Q14145); assay: disruptors of Keap1 binding to Nrf2 peptide – biochemical, fluorescence polarization, cherry-picked samples, dose response (AID 588683)
[2] = target: Glutathione-S-transferase (Schistosoma japonicum, UniProt Q26513); assay: GST-antibody interaction or FRET quenching – biochemical, TR-FRET, artefact control for Vif-APOBEC3G degradation inhibitor project, dose response (AID 1117362); assay type: functional
Sequence of Glutathione-S-transferase (Q26513 whole entry): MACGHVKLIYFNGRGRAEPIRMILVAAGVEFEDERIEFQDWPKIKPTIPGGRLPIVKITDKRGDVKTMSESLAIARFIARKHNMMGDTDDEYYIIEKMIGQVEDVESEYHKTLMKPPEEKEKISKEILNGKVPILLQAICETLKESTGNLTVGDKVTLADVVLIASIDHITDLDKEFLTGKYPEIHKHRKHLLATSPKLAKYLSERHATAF

[3] = system: Danio rerio; assay: In Vivo Angiogenesis Dose-Response Confirmation. [Related pubchem assays: 732 (Assay preceding this confirmatory assay.)]; assay type: functional, organism-based
[4] = target: T1, Leucine aminopeptidase (Plasmodium falciparum 3D7, UniProt Q8IL11); assay: P. falciparum M17LAP inhibitors, primary screen, biochemical, fluorogenic H-Leu-NHMec substrate, 1536-well (AID 1619); assay type: functional
T1 sequence (Q8IL11 whole entry): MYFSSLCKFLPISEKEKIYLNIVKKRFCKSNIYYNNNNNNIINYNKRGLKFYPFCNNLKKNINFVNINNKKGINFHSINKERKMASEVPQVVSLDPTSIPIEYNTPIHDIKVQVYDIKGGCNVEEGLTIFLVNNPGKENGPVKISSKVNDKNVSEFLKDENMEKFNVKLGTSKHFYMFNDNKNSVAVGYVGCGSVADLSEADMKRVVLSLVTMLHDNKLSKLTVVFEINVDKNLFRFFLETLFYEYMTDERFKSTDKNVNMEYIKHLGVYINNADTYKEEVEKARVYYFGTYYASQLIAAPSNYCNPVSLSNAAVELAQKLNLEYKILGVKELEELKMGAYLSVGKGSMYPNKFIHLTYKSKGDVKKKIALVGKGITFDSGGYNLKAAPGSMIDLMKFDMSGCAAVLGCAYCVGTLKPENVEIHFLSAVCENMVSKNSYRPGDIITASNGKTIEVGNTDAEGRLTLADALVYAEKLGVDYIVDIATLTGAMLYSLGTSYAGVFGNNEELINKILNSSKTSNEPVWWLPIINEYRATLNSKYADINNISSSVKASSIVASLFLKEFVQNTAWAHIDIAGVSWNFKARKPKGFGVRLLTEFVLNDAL

[5] = target: Heat shock protein HSP 90-alpha (Homo sapiens, UniProt P07900); assay: Luminescence-based dose response biochemical high throughput screening assay for inhibitors of the Heat Shock Protein 90 (HSP90). [Related pubchem assays: 1831 (Summary AID.), 1846 (Confirmation screen.), 1789 (Primary screen.)]
[6] = target: Bifunctional protein GlmU (Mycobacterium tuberculosis, UniProt P9WMN3); assay: Inhibitors of Mycobacterial Glucosamine-1-phosphate acetyl transferase (GlmU). Secondary screen.; set-up: species or system Mycobacterium tuberculosis H37Rv
Sequence of Bifunctional protein GlmU (P9WMN3 whole entry): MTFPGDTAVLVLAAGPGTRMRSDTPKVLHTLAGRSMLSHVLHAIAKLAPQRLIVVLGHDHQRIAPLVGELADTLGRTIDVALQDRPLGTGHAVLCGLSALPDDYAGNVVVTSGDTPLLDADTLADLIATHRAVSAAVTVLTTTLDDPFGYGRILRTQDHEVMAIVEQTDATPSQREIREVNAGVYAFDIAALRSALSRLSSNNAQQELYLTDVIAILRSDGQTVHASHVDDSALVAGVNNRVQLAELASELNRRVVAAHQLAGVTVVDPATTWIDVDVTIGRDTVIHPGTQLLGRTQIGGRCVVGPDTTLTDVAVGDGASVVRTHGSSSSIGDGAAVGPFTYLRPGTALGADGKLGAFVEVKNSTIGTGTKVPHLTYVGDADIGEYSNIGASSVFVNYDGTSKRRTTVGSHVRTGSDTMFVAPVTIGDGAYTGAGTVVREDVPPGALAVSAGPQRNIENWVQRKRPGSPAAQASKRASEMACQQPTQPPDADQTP

[7] = target: Genome polyprotein (dengue virus type 2, UniProt P29990); assay: flavivirus cap methylation enzyme inhibition – biochemical, confirmation dose response, primary screen (AID 588689); assay type: functional
Sequence of Genome polyprotein (P29990 2492-3391 limits assumed): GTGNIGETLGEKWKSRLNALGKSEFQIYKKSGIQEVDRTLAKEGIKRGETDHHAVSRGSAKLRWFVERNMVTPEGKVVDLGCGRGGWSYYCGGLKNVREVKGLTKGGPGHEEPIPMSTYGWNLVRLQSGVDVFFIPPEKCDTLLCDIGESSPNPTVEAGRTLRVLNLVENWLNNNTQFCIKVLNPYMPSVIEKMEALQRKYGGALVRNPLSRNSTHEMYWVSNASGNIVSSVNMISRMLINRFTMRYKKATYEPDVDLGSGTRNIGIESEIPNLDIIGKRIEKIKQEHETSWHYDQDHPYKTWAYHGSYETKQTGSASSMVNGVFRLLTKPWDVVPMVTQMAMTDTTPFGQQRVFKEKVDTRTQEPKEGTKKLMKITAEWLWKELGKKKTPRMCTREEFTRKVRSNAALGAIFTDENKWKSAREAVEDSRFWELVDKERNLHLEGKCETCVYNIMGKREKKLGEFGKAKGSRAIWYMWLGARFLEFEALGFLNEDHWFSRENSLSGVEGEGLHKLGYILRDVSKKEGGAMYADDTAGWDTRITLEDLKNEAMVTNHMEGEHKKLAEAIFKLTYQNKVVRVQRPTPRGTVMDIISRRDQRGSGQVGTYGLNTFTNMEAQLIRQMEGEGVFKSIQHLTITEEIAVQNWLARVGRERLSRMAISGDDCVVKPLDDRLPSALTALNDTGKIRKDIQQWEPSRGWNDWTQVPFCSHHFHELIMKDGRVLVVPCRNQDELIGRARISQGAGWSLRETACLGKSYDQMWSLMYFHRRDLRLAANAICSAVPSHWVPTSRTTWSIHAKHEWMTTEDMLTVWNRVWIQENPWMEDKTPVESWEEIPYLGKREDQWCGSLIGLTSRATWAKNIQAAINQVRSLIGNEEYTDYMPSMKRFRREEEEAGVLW

[8] = target: T2, Carboxy-terminal domain RNA polymerase II polypeptide A small phosphatase 1 (Homo sapiens, UniProt Q9GZU7); assay: CTDSP1 inhibitors, concentration-response, biochemical, absorbance readout, ultra-high-throughput screen actives (AID 540297); assay type: functional
T2 sequence (Q9GZU7 whole entry): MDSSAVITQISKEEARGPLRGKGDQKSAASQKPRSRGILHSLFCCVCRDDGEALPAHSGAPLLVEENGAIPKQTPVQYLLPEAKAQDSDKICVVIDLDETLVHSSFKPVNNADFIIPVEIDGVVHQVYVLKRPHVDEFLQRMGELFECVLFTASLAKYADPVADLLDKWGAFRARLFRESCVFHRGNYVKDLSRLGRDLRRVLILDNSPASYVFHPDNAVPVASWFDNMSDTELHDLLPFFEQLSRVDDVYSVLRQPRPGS

[9] = target: Tyrosine-protein phosphatase non-receptor type 11 (Homo sapiens, UniProt Q06124); assay: PTPN11 enzyme inhibitors – biochemical, selectivity assay for STEP inhibitor project, dose response (AID 602367); assay type: functional; conditions: read-out: IC50_Mean
Sequence of Tyrosine-protein phosphatase non-receptor type 11 (Q06124 whole entry): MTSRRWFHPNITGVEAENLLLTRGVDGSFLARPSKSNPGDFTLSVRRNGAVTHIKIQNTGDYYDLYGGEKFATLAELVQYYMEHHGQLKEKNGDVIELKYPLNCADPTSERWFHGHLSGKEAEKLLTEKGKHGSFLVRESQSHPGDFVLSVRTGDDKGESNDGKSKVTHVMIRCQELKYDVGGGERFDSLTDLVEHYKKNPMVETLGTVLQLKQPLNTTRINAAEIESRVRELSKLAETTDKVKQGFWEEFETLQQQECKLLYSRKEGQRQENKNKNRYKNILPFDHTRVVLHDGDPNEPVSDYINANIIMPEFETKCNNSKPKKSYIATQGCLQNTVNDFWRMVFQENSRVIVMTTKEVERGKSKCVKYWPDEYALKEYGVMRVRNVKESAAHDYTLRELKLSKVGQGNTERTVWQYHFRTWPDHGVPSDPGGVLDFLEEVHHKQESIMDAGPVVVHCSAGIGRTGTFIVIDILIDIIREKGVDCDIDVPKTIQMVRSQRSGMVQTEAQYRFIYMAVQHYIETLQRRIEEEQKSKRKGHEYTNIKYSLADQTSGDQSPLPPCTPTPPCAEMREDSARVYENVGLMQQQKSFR

[10] = target: Tyrosine-protein phosphatase non-receptor type 5 (Homo sapiens, UniProt P54829); assay: PTPN5 enzyme inhibition – biochemical, fluorescence intensity, uHTS hits, confirmation (AID 602372); assay type: functional; conditions: read-out: IC50_Mean
Sequence of Tyrosine-protein phosphatase non-receptor type 5 (P54829 whole entry): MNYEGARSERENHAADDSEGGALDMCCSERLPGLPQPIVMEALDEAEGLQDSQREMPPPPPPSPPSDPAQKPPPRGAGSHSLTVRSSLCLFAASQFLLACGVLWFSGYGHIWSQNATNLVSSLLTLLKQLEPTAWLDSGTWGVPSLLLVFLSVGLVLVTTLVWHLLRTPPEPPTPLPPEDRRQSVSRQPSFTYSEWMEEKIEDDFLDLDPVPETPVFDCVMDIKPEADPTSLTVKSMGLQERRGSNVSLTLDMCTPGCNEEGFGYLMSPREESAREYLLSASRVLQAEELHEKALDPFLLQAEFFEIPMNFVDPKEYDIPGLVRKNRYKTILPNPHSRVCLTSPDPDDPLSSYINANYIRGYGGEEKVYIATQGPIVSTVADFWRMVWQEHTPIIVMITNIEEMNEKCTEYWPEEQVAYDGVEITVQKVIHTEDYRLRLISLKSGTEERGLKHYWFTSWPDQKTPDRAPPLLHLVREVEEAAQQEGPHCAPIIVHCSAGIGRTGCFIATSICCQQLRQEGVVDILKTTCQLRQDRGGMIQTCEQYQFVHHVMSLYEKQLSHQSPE

[11] = target: Dual specificity protein phosphatase 3 (Homo sapiens, UniProt P51452); assay: VHR phosphatase inhibition, dose response, selectivity assay for STEP inhibitor project, biochemical (AID 602374); assay type: functional; conditions: read-out: IC50_Mean
Sequence of Dual specificity protein phosphatase 3 (P51452 whole entry): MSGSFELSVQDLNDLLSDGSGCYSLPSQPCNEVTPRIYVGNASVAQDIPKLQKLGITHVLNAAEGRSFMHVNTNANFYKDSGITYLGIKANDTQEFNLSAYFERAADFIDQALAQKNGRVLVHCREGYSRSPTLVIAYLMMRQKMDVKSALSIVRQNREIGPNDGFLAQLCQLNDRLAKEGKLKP

[12] = BioA aminotransferase inhibition, coupled fluorescent readout – biochemical, coupled fluorescence displacement, 20-point, dry powder, dose response (AID 743357); assay type: functional
[13] = target: G-protein coupled receptor 183 (Homo sapiens, UniProt P32249); assay: SAR confirmation of small molecule antagonists of the EBI2 receptor via a luminescent beta-arrestin assa.; assay type: functional
Sequence of G-protein coupled receptor 183 (P32249 whole entry): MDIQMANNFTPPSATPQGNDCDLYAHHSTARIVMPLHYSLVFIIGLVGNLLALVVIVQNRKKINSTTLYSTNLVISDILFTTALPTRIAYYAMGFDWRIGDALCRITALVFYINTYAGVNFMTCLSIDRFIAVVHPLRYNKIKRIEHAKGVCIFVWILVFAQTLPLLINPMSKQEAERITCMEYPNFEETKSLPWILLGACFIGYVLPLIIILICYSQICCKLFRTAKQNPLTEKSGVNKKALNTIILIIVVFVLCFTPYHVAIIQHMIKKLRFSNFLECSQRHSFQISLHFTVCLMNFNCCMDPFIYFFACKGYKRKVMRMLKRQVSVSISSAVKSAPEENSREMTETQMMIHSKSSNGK

[14] = growth inhibition of yeast DHODH-expressing 3D7 parasites – SYBR Green, dry powder samples, dose response (AID 1159570); assay type: functional, cell-based;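 note: parasite growth measured after 72 hours of compound exposure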
[15] = P. falciparum Dd2 growth inhibitors, dose response, SYBR Green, cherry-picked samples (AID 1159567); assay type: functional, cell-based
[16] = Dd2 malaria parasite growth inhibition potency – SYBR Green, dry powder samples, dose response (AID 1159566); assay type: functional, cell-based;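 note: potency for growth inhibition with lower SYBR green DNA signal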
[17] = toxicity to human hepatoma HepG2 cells – cell-based, cherry-picked samples, cytotoxicity control, dose response (AID 1159577); assay type: functional
[18] = growth inhibition of PfATP4-mutant resistant parasites – NITD609-resistant line, SYBR Green, dry powder, dose response (AID 1159571); assay type: functional, cell-based;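 note: parasites synchronized at ring stage by sorbitol before testing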
[19] = inhibitors of TRPM1-promoter reporter in SK-MEL-5 – cell-based, luciferase, dry powder, set 9, MITF inhibitor project, dose response (AID 651588); assay type: functional
[20] = cytotoxicity in MITF-independent A375 cells – cell-based, CellTiter-Glo luminescence, dry powder, set 4, counter-screen for MITF inhibitor project, dose response (AID 624364); assay type: functional; conditions: A-375;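 note: A375 melanoma cells are MITF independent so this is a counter screen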
[21] = viability loss in MITF-independent A375 cells – cell-based, CellTiter-Glo luminescence, dry powder, set 7, counter-screen for MITF inhibitor project, dose response (AID 624490); assay type: functional; conditions: A-375
[22] = MITF Orthogonal Assay: MALME3 CTG Assay Measured in Cell-Based System Using Plate Reader - 2084-04_Inhibitor_Dose_DryPowder_Activity_Set6.; assay type: functional; conditions: MALME-3
[23] = growth inhibition of SK-MEL-5 melanoma cells – cell-based, CellTiter-Glo luminescence, dry powder, set 8, orthogonal assay for MITF inhibitor project, dose response (AID 651586); assay type: functional
[24] = growth inhibition of MALME3 cells – cell-based, CellTiter-Glo luminescence, dry powder, set 5, orthogonal assay for MITF inhibitor project, dose response (AID 651584); assay type: functional; conditions: MALME-3
[25] = cytotoxicity in melanoma parental cells – cell-based, CellTiter-Glo, dry powder, set 6, MITF inhibitor project, dose response (AID 624429); assay type: functional; conditions: SK-MEL-5
[26] = MITF Orthogonal Assay: SK-MEL-5 CTG Assay Measured in Cell-Based System Using Plate Reader - 2084-02_Inhibitor_Dose_DryPowder_Activity_Set5.; assay type: functional
[27] = viability loss in MITF-independent A375 cells – cell-based, CellTiter-Glo luminescence, dry powder, set 6, counter-screen for MITF inhibitor project, dose response (AID 624488); assay type: functional; conditions: A-375
[28] = cytotoxicity in MITF-independent A375 cells – cell-based, CellTiter-Glo luminescence, dry powder, set 9, counter-screen for MITF modulator project, dose response (AID 651591); assay type: functional; conditions: A-375
[29] = MITF Measured in Cell-Based System Using Plate Reader - 2084-01_Inhibitor_Dose_DryPowder_Activity_Set6.; assay type: functional
[30] = viability loss in MITF-independent A375 cells – cell-based, CellTiter-Glo luminescence, dry powder, set 2, counter-screen for MITF inhibitor project, dose response (AID 624489); assay type: functional; conditions: A-375;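 note: actives are compounds lowering A375 viability meaning general cytotoxicity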
[31] = MITF Measured in Cell-Based System Using Plate Reader - 2084-01_Inhibitor_Dose_DryPowder_Activity_Set7.; assay type: functional
[32] = melanocyte viability loss, MITF-dependent cells, cell-based, plate reader, dry powder, cytotoxicity control, dose response (AID 651920); assay type: functional

Sequence of Keap1/Nrf2 (Q16236 whole entry): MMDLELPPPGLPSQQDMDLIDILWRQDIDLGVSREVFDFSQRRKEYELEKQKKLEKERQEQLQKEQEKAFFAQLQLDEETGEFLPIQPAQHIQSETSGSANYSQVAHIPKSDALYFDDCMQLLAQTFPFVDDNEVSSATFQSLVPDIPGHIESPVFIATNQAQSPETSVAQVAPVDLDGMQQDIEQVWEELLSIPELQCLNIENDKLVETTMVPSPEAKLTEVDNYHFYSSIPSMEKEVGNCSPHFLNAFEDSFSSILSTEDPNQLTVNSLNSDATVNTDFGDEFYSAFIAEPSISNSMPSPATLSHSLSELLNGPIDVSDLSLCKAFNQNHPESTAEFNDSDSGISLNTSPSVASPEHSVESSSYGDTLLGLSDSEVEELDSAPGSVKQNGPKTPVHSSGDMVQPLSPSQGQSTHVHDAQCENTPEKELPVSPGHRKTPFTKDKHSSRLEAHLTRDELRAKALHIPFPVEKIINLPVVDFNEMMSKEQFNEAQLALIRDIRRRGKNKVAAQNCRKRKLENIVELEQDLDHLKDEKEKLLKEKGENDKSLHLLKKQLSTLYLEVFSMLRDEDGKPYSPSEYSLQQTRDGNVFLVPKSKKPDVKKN
Sequence of Keap1/Nrf2 (Q14145 whole entry): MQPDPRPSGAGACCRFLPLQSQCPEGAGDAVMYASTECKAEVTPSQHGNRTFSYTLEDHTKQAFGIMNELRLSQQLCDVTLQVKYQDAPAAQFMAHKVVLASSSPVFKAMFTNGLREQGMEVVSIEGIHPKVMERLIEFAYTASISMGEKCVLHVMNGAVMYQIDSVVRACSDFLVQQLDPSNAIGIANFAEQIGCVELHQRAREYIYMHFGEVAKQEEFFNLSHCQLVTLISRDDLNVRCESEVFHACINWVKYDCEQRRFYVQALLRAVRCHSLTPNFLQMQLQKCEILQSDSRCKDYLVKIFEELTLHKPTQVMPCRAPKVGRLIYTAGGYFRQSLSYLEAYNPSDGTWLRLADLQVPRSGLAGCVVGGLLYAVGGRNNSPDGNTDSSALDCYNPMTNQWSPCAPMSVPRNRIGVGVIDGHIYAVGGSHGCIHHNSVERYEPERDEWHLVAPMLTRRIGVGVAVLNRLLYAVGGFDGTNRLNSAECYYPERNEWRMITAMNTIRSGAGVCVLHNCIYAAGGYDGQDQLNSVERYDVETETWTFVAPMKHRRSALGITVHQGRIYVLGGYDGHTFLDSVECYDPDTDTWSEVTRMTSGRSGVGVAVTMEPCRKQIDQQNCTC

With COC(=O)C1=COC(C)C2CN3CCc4c([nH]c5ccccc45)C3CC12 (configuration not stated) the AC50 [1] was > 52 µM (inactive) and the IC50 [2] was > 100 µM (active).

For Cc1cccc2c1NC(=O)/C2=C1\Nc2ccc(Br)cc2\C1=N/O, the IC50 [3] was 4.01 µM (not active).

In the case of COc1cc(/C=N/Nc2ccc(Cl)c(C(=O)O)c2)ccc1OC(=O)c1ccco1, the IC50 [4] is reported as 48.8 µM (active) and the IC50 [5] is reported as 0.792 µM (active).

With CCc1c(C)[nH]n(-c2ccc(Oc3ccccc3)c(S(=O)(=O)O)c2)c1=O the IC50 [6] was 157 µM (active), the IC50 [7] was 84.5 µM (active) and the IC50 [8] was 4.83 µM (active). For the same compound, the IC50 [9] was 3.1 µM (active), the IC50 [10] was 58.8 µM (inactive) and the IC50 [11] was 3.6 µM (active).

For COc1cc2c(cc1C(=O)N1CCN(c3ccc(C(C)=O)cc3)CC1)OCO2, the AC50 [12] was 13.7 µM (active).

In the case of O=C(/C=C/c1ccc(F)cc1)N1CCN(S(=O)(=O)c2ccc([N+](=O)[O-])cc2)CC1, the IC50 [13] is reported as 0.0129 µM (active).

With C[C@H](CO)N1C[C@H](C)[C@@H](CN(C)CC2CC2)Oc2ccc(NC(=O)Nc3cccc4ccccc34)cc2CC1=O the AC50 [14] was 2.09 µM (active), the AC50 [15] was 2.93 µM (active) and the AC50 [16] was 1.72 µM (active). For the same compound, the AC50 [17] was > 39 µM (inactive) and the AC50 [18] was 3.39 µM (active).

For NC1=CC(=O)c2ccccc2C1=O, the AC50 [19] was 12.1 µM (active), the AC50 [20] was > 70 µM (inactive) and the AC50 [21] was 45.7 µM (active). The AC50 [22] was 9.48 µM (active), the AC50 [23] was 8.76 µM (active) and the AC50 [24] was 9.48 µM (active). For the same compound, the AC50 [25] was 6.75 µM (active), the AC50 [26] was 5.13 µM (active) and the AC50 [27] was 56.9 µM (active). For the same compound, the AC50 [28] was > 70 µM (inactive), the AC50 [29] was 4.14 µM (active) and the AC50 [30] was 65.7 µM (active). The AC50 [31] was 1.28 µM (active) and the AC50 [32] was 25.1 µM (active).
